Values joined by “and” are separate entries in the source; they are usually repeats but may differ in a detail not shown here. Identical values can stand only once.
How the values were obtained:
[1] = test system: yeast strains expressing the human α-synuclein; test: Yeast α-synuclein toxicity rescue assay (OD600 growth); conditions: 40 h; for EC50: read-out: α-Syn EC50; for Emax: read-out: α-Syn Emax
From the text: The induced expression of α-synuclein and ApoE4 confers cytotoxicity, thus enabling the identification of compounds that can restore cell viability. This instantaneous/synchronous induction of α-synuclein and ApoE4 can be achieved due to the following expression control. In glucose-containing media, gene expression from the GAL1 promoter is ‘off’ and actively repressed by additional epigenetic factors. In raffinose, expression is ‘off’, but the promoter not actively repressed. Upon transition to galactose-containing media, the promoter is instantaneously turned ‘on’ to achieve robust and synchronous induction of α-synuclein or ApoE4 expression. This highly regulated induction provides a robust window for the determination of both efficacy (amplitude of protective effect) and potency (concentration of protective effect) of cytoprotective compounds.
Re-suspended compound stocks were subsequently arrayed into 384 well compound plates using automated pipetting. All other wells not receiving stock compound were filled with 10 μL of 100% DMSO using an automated plate filler (Multidrop Combi). An 11 point, 2-fold serial dilution was then performed using the robotic platform. Compound assay plates were covered with foil and stored at −20° C. until use.
Each strain was handled according to standard protocols and cultured in media composed of CSM (complete synthetic media), YNB (yeast nitrogenous base), and a 2% (w/v) carbon source (either glucose, raffinose, or galactose).
In a standard yeast assay, a single-use aliquot of cells was thawed on ice and diluted into CSM/glucose (5 mL). Cultures were grown for 8 hours at 30° C. This pre-growth enables the yeast to exit the thaw and begin to grow without expressing aSyn or ApoE4. After 8 hours, cell density (OD600) was determined and cultures diluted to an OD600 of 0.01 in CSM/raffinose for an overnight culture phase at 30° C. During this period, the active glucose repression of the GAL1 promoter was relieved; however, expression of the α-Syn/ApoE4 genes were not yet induced. After ˜16 hours of growth, cultures attain an OD600 of 0.4-0.8 and were ready to apply to assay plates containing compound.
Compound profiling assays were executed in clear-bottom 384 well plates. First, compound plates were thawed at room temperature for 45′, centrifuged at 1,000×g for 1 minute, and the foil removed. Clear 384 well assay plates were then filled with 15 μL of CSM/galactose. […] The pin tool was washed iteratively with both 50% DMSO and 100% ethanol between each assay plate. After delivering compound to each assay plate, the overnight CSM/raffinose aSyn or ApoE4 cultures were added at a 2X cell density (0.04 for aSyn and 0.08 for ApoE4) in CSM/galactose to achieve a final assay OD600 of 0.02 and 0.04 for aSyn and ApoE, respectively. The cultures (15 μL per well) were then dispensed to the compound -containing 384 well assay plates using an automated plate filler. Plates were incubated in a humidified 30° C. incubator for 40 or 24 hours for aSyn and ApoE4, respectively. The ODsoo of each assay plate was then read with a microplate reader (e.g., Perkin Elmer Envision).
The efficacy and potency of compounds were calculated according to the following. Raw data (OD600 values) were first background corrected to account for OD600 contributed by the plate and media itself. The efficacy (percent above DMSO, herein referred to as “Emax”) was calculated according to the equation: (Experimental well−DMSO control well)/(DMSO control well)*100. […] Normalized dose-response data was fit with a logistic regression curve using Spotfire (TIBCO), or similar curve-fitting software package. EC50 values were then reported along with EMax to provide both efficacy and potency measures for each analog and enable further compound design.

[2] = biological target: T1, Ole1 (Saccharomyces cerevisiae, UniProt P21147); test: Growth inhibition of yeast strain expressing Ole1 as sole desaturase; assay type: cell-based; conditions: yeast strain expressing Ole1 as sole desaturase
T1 construct: expressed in transfected cells; host or cells: S. cerevisiae ole1Δ strain (W303 pdr1Δ pdr3Δ background), plasmid pRS316 with TDH3 promoter and CYC1 terminator
T1 sequence (P21147 1-510): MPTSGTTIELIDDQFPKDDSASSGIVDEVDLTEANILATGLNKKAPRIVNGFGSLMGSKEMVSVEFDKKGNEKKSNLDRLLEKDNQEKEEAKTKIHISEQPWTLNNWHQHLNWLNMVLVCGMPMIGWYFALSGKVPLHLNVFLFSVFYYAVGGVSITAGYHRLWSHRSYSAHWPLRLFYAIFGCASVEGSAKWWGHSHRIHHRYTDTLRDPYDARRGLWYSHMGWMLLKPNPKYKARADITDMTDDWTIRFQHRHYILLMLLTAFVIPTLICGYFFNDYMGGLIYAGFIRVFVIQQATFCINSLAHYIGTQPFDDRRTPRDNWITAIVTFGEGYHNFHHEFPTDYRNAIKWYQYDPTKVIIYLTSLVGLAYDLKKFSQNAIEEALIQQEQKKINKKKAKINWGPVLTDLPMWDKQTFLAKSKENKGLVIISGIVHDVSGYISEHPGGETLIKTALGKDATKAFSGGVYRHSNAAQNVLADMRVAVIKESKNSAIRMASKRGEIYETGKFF
Method in brief: (§1)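 Measured by optical density at 600 nm, growth of desaturase-dependent yeast (OLE1 deleted; human SCD1, human SCD5 or yeast Ole1 supplied from plasmid) was scored after 24 h (Ole1) or 40 h (SCD1, SCD5) at 30° C. in galactose media lacking uracil with DMSO-delivered compound.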

[3] = biological target: T2, SCD5 (Homo sapiens, UniProt Q86SK9); test: Growth inhibition of humanized yeast strain expressing SCD5 as sole desaturase; assay type: cell-based; conditions: humanized yeast strain expressing SCD5
T2 construct: host or cells: S. cerevisiae ole1Δ strain (W303 pdr1Δ pdr3Δ background), plasmid pRS316 with TDH3 promoter and CYC1 terminator
T2 sequence (Q86SK9 1-330): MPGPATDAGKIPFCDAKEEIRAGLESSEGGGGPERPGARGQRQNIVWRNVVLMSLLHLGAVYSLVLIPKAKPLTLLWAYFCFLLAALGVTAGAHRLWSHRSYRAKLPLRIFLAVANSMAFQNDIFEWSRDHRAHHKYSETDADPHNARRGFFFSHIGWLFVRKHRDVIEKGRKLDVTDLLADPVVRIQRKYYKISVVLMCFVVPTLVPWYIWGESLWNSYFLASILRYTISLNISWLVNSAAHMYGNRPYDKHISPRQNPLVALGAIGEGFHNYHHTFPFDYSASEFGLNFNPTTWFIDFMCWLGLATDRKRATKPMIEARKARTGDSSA
Method in brief: as §1

[4] = biological target: T3, SCD1 (Homo sapiens, UniProt O00767); test: Growth inhibition of humanized yeast strain expressing SCD1 as sole desaturase; assay type: cell-based; conditions: humanized yeast strain expressing SCD1
T3 construct: host or cells: S. cerevisiae ole1Δ strain (W303 pdr1Δ pdr3Δ background), plasmid pRS316 with TDH3 promoter and CYC1 terminator
T3 sequence (O00767 1-359): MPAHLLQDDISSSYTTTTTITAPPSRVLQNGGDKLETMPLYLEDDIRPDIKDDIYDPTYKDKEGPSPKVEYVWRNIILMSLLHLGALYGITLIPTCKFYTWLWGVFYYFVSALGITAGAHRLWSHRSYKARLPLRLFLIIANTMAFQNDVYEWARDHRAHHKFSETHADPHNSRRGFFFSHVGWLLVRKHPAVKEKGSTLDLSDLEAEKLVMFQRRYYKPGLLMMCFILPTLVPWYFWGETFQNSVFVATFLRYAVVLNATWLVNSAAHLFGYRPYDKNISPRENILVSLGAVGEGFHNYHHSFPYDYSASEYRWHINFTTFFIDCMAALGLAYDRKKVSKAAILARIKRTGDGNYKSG
Method in brief: as §1

SMILES	EC50 [1] [µM]	Emax [1] [%]	IC50 [2] [µM]	OLE1 % Max Inhibition [2]	IC50 [3] [µM]	SCD5 % Max Inhibition [3]	IC50 [4] [µM]	SCD1 % Max Inhibition [4]
Cc1nn(C)c2ccc(-c3noc(C4CCN(C(=O)N5CCCCC5)CC4)n3)cc12 [Compound 117]	7.5	124	> 45	92.97%	36.1	54.63%	> 45	95.94%
CCOc1ccc(-c2noc(C3CCN(C(=O)CNC(=O)c4ccccc4)CC3)n2)cc1C#N [compound 101]	1.18	122	> 45		> 45		> 45	
Cc1ccc(-c2nc(C3CCN(C(=O)[C@@H]4CC(=O)N(c5ccc(C)c(C)c5)C4)CC3)no2)cc1 [compound 72]	12.7	35	> 45		33		27.3	
COc1cccc(C(=O)NCC(=O)N2CCC(c3nc(-c4ccc5c(C)nn(C)c5c4)no3)CC2)n1 [Compound 154]	0.057	410	> 45	1.20%	> 45	3.25%	> 45	68.90%
Cn1c(=O)n(C)c2cc(-c3noc(C4CCN(C(=O)CNC(=O)c5ccccc5)CC4)n3)ccc21 [Compound 122]	0.139	414	> 45	109.89%	> 45	90.04%	> 45	92.73%
Cc1nn(C)c2cc(-c3noc(C4CCN(C(=O)C5CC(=O)N(c6ccccc6)C5)CC4)n3)ncc12 (centres unmarked) [Compound 120]	19.5	139	> 45	119.08%	> 45	96.39%	> 45	99.80%
O=C(NCC(=O)N1CCC(c2nc(-c3ccccn3)no2)CC1)c1ccccc1 [compound 78]	14.6	38	38.3		> 45		> 45	
COc1ccc(C(=O)NCC(=O)N2CCC(c3nc(-c4ccc5c(C)nn(C)c5c4)no3)CC2)nc1 [Compound 151]	0.045	405	> 45	2.67%	> 45	20.68%	> 45	75.63%
CCOc1ccc(-c2noc(C3CCN(C(=O)[C@H]4CC[C@H](c5ccccc5)N4)CC3)n2)cc1OC [Compound 119]	20.9	61	> 45	111.86%	> 45	93.93%	> 45	86.22%
Cc1nn(C)c2cc(-c3noc(C4CCN(C(=O)C5CC(=O)N(c6ccccc6)C5)CC4)n3)cnc12 (centres unmarked) [Compound 138]	1.28	353	> 45	3.94%	> 45	4.57%	37.3	54.49%
Cn1c(=O)[nH]c2ccc(-c3noc(C4CCN(C(=O)CN5Cc6ccccc6C5=O)CC4)n3)cc21 [Compound 133]	6.38	281	> 45	26.72%	> 45	74.75%	37.3	61.21%
Cc1nn(C)c2cc(-c3noc(C4CCN(C(=O)CNC(=O)c5ccccc5)CC4)n3)ccc12 [Compound 40]	0.086	443	> 45	1.26% and 0.80% and 4.9%	> 45		> 45	41.70% and 47.19% and 57.7%
Cc1nn(C)c2cc(-c3noc(C4CCN(C(=O)CNC(=O)c5ccccc5)CC4)n3)ncc12 [Compound 114]	17.3	373	> 45	90.17%	> 45	77.66%	> 45	74.54%
CCOc1ccc(-c2noc(C3CCN(C(=O)C(C)N4Cc5ccccc5C4=O)CC3)n2)cc1OC (centres unmarked) [Compound 140]	0.049	322	> 45	3.96% and 4.98%		3.46% and 10.16%	> 45	77.37% and 75.00%
CCOc1ncc(-c2noc(C3CCN(C(=O)CNC(=O)c4ccccc4)CC3)n2)cc1OC [Compound 132]	1.01	253	> 45	7.45%	> 45	94.34%	> 45	115.10%
COc1ccnc(C(=O)NCC(=O)N2CCC(c3nc(-c4ccc5c(C)nn(C)c5c4)no3)CC2)c1 [Compound 150]	0.099	473	> 45	5.16%	> 45	86.15%	> 45	74.48%
COc1ccc(-c2noc(C3CCN(C(=O)CNC(C)=O)CC3)n2)cc1OC [Compound 46]	10.9	35	> 45	87.95%	> 45	72.35%	> 45	70.27%
Cc1nn(C)c2cc(-c3noc(C4CCN(C(=O)C(C)N5Cc6ccccc6C5=O)CC4)n3)ccc12 (centres unmarked) [Compound 141]	0.019	259	> 45	1.77%	> 45	78.91%	> 45	86.53%
COc1ccc(-c2noc(C3CCN(C(=O)CNC(=O)c4ccccn4)CC3)n2)cc1OC [Compound 145]	0.1	432	15.8	51.17%	> 45	86.51%	> 45	78.31%
COc1ccc(-c2noc(C3CCN(C(=O)C4CC(=O)N(C5CCCCC5)C4)CC3)n2)cc1OC (centres unmarked) [Compound 125]	16.7	200	> 45	92.36%	> 45	94.83%	> 45	77.68%
CCOc1cnc(-c2noc(C3CCN(C(=O)CNC(=O)c4ccccc4)CC3)n2)cc1OC [Compound 121]	15.5	388	> 45	111.12%	> 45	98.38%	> 45	94.06%
Cc1nn(C)c2cc(-c3noc(C4CCN(C(=O)[C@H]5CC(=O)N(c6ccccc6)C5)CC4)n3)ccc12 [compound 90]	1.65	281	> 45		> 45		> 45	
CCOc1ccc(-c2noc(C3CCN(C(=O)CNC(=O)c4ccccc4)CC3)n2)nc1OC [Compound 107]	2.9	312	> 45	4.55%	> 45	74.80%	> 45	73.32%
